The results in this text go back to patent publication US20240343704A1, “HALO-SUBSTITUTED AMINO PYRIDINE COMPOUNDS AS INHIBITORS OF THE HAEMATOPOIETIC PROGENITOR KINASE 1 (HPK1)” (priority 2021, published 2024).

Test [1] has as its target T1, Recombinant (1-346) HPK1 (h) (Homo sapiens, UniProt Q92918).
T1 construct: Recombinant (1-346) HPK1 (h) is incubated with 8 mM MOPS pH 7.0
T1 sequence (Q92918 1-346): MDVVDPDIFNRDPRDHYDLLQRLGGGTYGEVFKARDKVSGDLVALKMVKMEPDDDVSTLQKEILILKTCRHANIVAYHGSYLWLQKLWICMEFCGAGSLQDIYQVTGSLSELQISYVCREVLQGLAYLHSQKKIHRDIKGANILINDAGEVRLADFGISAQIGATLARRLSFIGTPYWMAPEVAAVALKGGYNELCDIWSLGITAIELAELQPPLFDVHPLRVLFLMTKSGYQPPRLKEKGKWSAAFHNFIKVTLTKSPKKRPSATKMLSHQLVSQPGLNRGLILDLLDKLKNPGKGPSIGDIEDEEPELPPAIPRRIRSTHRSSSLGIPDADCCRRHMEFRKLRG
The test is described as follows: HPK1 Human STE Kinase Enzymatic Radiometric Assay. The following applies: read-out: HPK1 IC50 nM Range*. Type of test: biochemical. The procedure:
A stock solution of 10 mM of test compound is prepared in DMSO. The compound plate was prepared by 3-fold and 9-point serial dilutions. […] The reaction is initiated by The addition of the Mg/ATP mix. After incubation for 40 minutes at RT, the reaction is stopped by the addition of phosphoric acid to a concentration of 0.5%.

In another test the target is Lck (h) (Homo sapiens, UniProt P06239). In words: Lck Human  Kinase Enzymatic Radiometric Assay. It is filed as biochemical. The following applies: read-out: Lck IC50 nM Range*. The essentials:
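Substrate 33P-incorporation measured by scintillation counting after spotting on P30 filtermat and phosphoric acid washes. Human Lck reacted 40 min at RT in 50 mM Tris pH 7.5 with 10 mM MgAcetate, [gamma-33P]-ATP, 250 uM Cdc2 peptide, 0.1 mM EGTA and 0.1 mM Na3VO4.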

SMILES strings stand for the structures.

Chain of Lck (h) (P06239 whole entry): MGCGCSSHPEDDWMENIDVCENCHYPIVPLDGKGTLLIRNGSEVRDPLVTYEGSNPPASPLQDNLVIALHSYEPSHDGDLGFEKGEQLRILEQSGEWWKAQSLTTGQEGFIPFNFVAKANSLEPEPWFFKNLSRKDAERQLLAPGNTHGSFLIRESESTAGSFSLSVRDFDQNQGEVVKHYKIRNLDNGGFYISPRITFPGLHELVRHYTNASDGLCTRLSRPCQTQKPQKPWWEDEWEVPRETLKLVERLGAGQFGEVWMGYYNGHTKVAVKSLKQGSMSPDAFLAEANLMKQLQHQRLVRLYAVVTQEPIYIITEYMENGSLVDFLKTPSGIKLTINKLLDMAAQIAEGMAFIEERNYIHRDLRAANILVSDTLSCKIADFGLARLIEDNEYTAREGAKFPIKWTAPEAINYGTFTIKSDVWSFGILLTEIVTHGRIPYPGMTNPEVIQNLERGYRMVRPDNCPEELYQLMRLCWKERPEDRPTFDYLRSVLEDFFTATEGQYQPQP

As to `COCCN1CCc2cc(-c3cc(-c4cc5c(cc4F)C(=O)NCC5)c(N)nc3F)ccc2C1` [I-300, 6-(2-amino-6-fluoro-5-(2-(2-methoxyethyl)-1,2,3,4-tetrahydroisoquinolin-6-yl)pyridin-3-yl)-7-fluoro-3,4-dihydroisoquinolin-1(2H)-one], the results for the IC50 (in test [1]; on Lck (h)) were 0.1 to 10 nM and greater than 1000 nM, respectively.

As to `Nc1nc(F)c(-c2ccc(OC3CN(C(=O)CC4CC4)C3)cc2)cc1-c1ccc2c(c1)CCNC2=O` [I-317, 6-(2-amino-5-(4-((1-(2-cyclopropylacetyl)azetidin-3-yl)oxy)phenyl)-6-fluoropyridin-3-yl)-3,4-dihydroisoquinolin-1(2H)-one], the IC50 in test [1] was 0.1 to 10 nM; at Lck (h), greater than 1000 nM.

For the compound `CC(=O)N1CC(Oc2ccc(-c3cc(-c4ccc5c(c4)CCNC5=O)c(N)nc3F)cc2)C1` [I-326, 6-(5-(4-((1-acetylazetidin-3-yl)oxy)phenyl)-2-amino-6-fluoropyridin-3-yl)-3,4-dihydroisoquinolin-1(2H)-one], the IC50 is 0.1 to 10 nM in test [1] and greater than 1000 nM at Lck (h).

For `Nc1nc(F)c(-c2ccc(N3C[C@@H]4CCO[C@@H]4C3)cc2)cc1-c1ccc2c(c1)CCNC2=O` [I-92, 6-(2-amino-6-fluoro-5-(4-((3aS,6aS)-hexahydro-5H-furo[2,3-c]pyrrol-5-yl)phenyl)pyridin-3-yl)-3,4-dihydroisoquinolin-1(2H)-one], the IC50 in test [1] was 0.1 to 10 nM; at Lck (h), greater than 1000 nM.

For `Nc1nc(F)c(-c2ccc(S(=O)(=O)C3CNC3)cc2)cc1-c1ccc2c(c1)CCNC2=O` [I-84, 6-(2-amino-5-(4-(azetidin-3-ylsulfonyl)phenyl)-6-fluoropyridin-3-yl)-3,4-dihydroisoquinolin-1(2H)-one], the IC50 in test [1] is 11 to 100 nM; on Lck (h), greater than 1000 nM.

On to `Nc1nc(F)c(-c2ccc(C3CCOCC3)c([C@@H]3CCCN3)c2)cc1-c1ccc2c(c1)CCNC2=O` [I-367, (S)-6-(2-amino-6-fluoro-5-(3-(pyrrolidin-2-yl)-4-(tetrahydro-2H-pyran-4-yl)phenyl)pyridin-3-yl)-3,4-dihydroisoquinolin-1(2H)-one], for which the 50% inhibitory concentration (IC50) in test [1] fell in the range of 0.1 to 10 nM; at Lck (h), 101 to 1000 nM.

`CC(C)N1CCC(Oc2ccc(-c3cc(-c4ccc5c(c4)CCNC5=O)c(N)nc3F)cc2F)CC1` [I-268, 6-(2-amino-6-fluoro-5-(3-fluoro-4-((1-isopropylpiperidin-4-yl)oxy)phenyl)pyridin-3-yl)-3,4-dihydroisoquinolin-1(2H)-one]: the results for the 50% inhibitory concentration (IC50) (in test [1]; on Lck (h)) were 0.1 to 10 nM and greater than 1000 nM, respectively.

Regarding `CN(C)S(=O)(=O)c1ccc(-c2cc(-c3ccc4c(c3)CCNC4=O)c(N)nc2F)cc1` [I-64, 4-(6-amino-2-fluoro-5-(1-oxo-1,2,3,4-tetrahydroisoquinolin-6-yl)pyridin-3-yl)-N,N-dimethylbenzenesulfonamide], the IC50 in test [1] is 0.1 to 10 nM; on Lck (h), greater than 1000 nM.

For `COCCN1CCC(c2ccc(-c3cc(-c4cc(F)c5c(c4)CCNC5=O)c(N)nc3F)cc2)CC1` [I-350, 6-(2-amino-6-fluoro-5-(4-(1-(2-methoxyethyl)piperidin-4-yl)phenyl)pyridin-3-yl)-8-fluoro-3,4-dihydroisoquinolin-1(2H)-one], the 50% inhibitory concentration (IC50) in test [1] fell in the range of 0.1 to 10 nM; on Lck (h), 101 to 1000 nM.

For the compound `CC(C)N1CCCCC1c1ccc(-c2cc(-c3ccc4c(c3)CCNC4=O)c(N)nc2F)cc1` (stereo not shown) [I-104, 6-(2-amino-6-fluoro-5-(4-(1-isopropylpiperidin-2-yl)phenyl)pyridin-3-yl)-3,4-dihydroisoquinolin-1(2H)-one], the half-inhibitory concentration (IC50) was 0.1 to 10 nM in test [1] and greater than 1000 nM on Lck (h).

Consider `CN(C)Cc1cc(-c2cc(-c3cc(F)c4c(c3)CCNC4=O)c(N)nc2F)ccc1C1CCOCC1` [I-436, 6-(2-amino-5-(3-((dimethylamino)methyl)-4-(tetrahydro-2H-pyran-4-yl)phenyl)-6-fluoropyridin-3-yl)-8-fluoro-3,4-dihydroisoquinolin-1(2H)-one], for which the half-inhibitory concentration (IC50) is 0.1 to 10 nM in test [1] and greater than 1000 nM on Lck (h).

Consider `Nc1nc(F)c(-c2ccc(N3CCN(CCC(F)(F)F)CC3)cc2)cc1-c1ccc2c(c1)CCNC2=O` [I-240, 6-(2-amino-6-fluoro-5-(4-(4-(3,3,3-trifluoropropyl)piperazin-1-yl)phenyl)pyridin-3-yl)-3,4-dihydroisoquinolin-1(2H)-one], for which the values for the IC50 (in test [1]; at Lck (h)) were 0.1 to 10 nM and greater than 1000 nM, respectively.

Regarding `Nc1nc(F)c(-c2ccc3c(c2)CCC2(CCN(CC(F)(F)F)CC2)O3)cc1-c1ccc2c(c1)CCNC2=O` [I-197, 6-(2-amino-6-fluoro-5-(1′-(2,2,2-trifluoroethyl)spiro[chromane-2,4′-piperidin]-6-yl)pyridin-3-yl)-3,4-dihydroisoquinolin-1(2H)-one], the half-maximal inhibitory concentration (IC50) was 11 to 100 nM in test [1] and greater than 1000 nM on Lck (h).

With `Nc1nc(F)c(-c2ccc(OC3CCNCC3)cc2)cc1-c1ccc2c(c1)CCNC2=O` [I-22, 6-(2-amino-6-fluoro-5-(4-(piperidin-4-yloxy)phenyl)pyridin-3-yl)-3,4-dihydroisoquinolin-1(2H)-one], the results for the IC50 (in test [1]; on Lck (h)) were 0.1 to 10 nM and greater than 1000 nM, respectively.

As to `CCN1CCN(c2ccc(-c3cc(-c4ccc5c(c4)CCNC5=O)c(N)nc3Cl)cc2)CC1` [I-75, 6-(2-amino-6-chloro-5-(4-(4-ethylpiperazin-1-yl)phenyl)pyridin-3-yl)-3,4-dihydroisoquinolin-1(2H)-one], the results for the half-inhibitory concentration (IC50) (in test [1]; at Lck (h)) were 11 to 100 nM and greater than 1000 nM, respectively.

For the compound `CC(=O)N1CCC(Oc2ccc(-c3cc(-c4cc5c(cc4F)C(=O)NCC5)c(N)nc3F)cc2)CC1` [I-327, 6-(5-(4-((1-acetylpiperidin-4-yl)oxy)phenyl)-2-amino-6-fluoropyridin-3-yl)-7-fluoro-3,4-dihydroisoquinolin-1(2H)-one], the concentration for half-maximal inhibition (IC50) in test [1] was 0.1 to 10 nM; at Lck (h), greater than 1000 nM.

Consider `CN1CCc2cc(-c3cc(-c4ccc5c(c4)CCNC5=O)c(N)nc3F)ccc2C1` [I-254, 6-(2-amino-6-fluoro-5-(2-methyl-1,2,3,4-tetrahydroisoquinolin-6-yl)pyridin-3-yl)-3,4-dihydroisoquinolin-1(2H)-one], for which the IC50 is 11 to 100 nM in test [1] and greater than 1000 nM at Lck (h).

As to `COCCN1CCC(Oc2ccc(-c3cc(-c4ccc5c(c4)CCNC5=O)c(N)nc3F)cc2)CC1` [I-189, 6-(2-amino-6-fluoro-5-(4-((1-(2-methoxyethyl)piperidin-4-yl)oxy)phenyl)pyridin-3-yl)-3,4-dihydroisoquinolin-1(2H)-one], the IC50 in test [1] was 0.1 to 10 nM; at Lck (h), greater than 1000 nM.

As to `Nc1nc(F)c(-c2ccc(O[C@H]3CCCNC3)cc2)cc1-c1ccc2c(c1)CCNC2=O` [I-94, (S)-6-(2-amino-6-fluoro-5-(4-(piperidin-3-yloxy)phenyl)pyridin-3-yl)-3,4-dihydroisoquinolin-1(2H)-one], the IC50 in test [1] was 0.1 to 10 nM; at Lck (h) it was greater than 1000 nM.

As for `Nc1nc(F)c(-c2ccc(OC3CCOCC3)cc2)cc1-c1ccc2c(c1)CCNC2=O` [I-35, 6-(2-amino-6-fluoro-5-(4-((tetrahydro-2H-pyran-4-yl)oxy)phenyl)pyridin-3-yl)-3,4-dihydroisoquinolin-1(2H)-one], the values for the IC50 (in test [1]; on Lck (h)) were 0.1 to 10 nM and greater than 1000 nM, respectively.

The IC50 is the concentration at which inhibition is half-maximal.
